Format in all cases: cell-based
One assay relates to NCI-H460. As to the kind of experiment: Viability assay with NCI-H460 (CellTiter-Glo cytotoxicity assay, 72 h). The conditions noted are these: NCI-H460 cell line, 72 h after compounds addition. In outline:
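NCI-H460 cells, RPMI 1640 + 10% FBS, seeded 1200/well and adhered overnight, then exposed to compounds at 9 points, 2-fold dilution, in triplicate, 0.5% DMSO final. Cellular ATP measured by CellTiter-Glo luminescence 72 h after addition.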

For a further assay, the system named is HT-29. The assay is described as follows: Viability assay with HT-29. As to conditions: HT-29, viability assay per Example 57. The method, then: NCI-H460 (Epithelial lung tissue; carcinoma; large cell lung cancer) were cultured in RPMI Medium 1640 (Invitrogen-22400105) supplemented with 10% fetal bovine serum (FBS; Invitrogen-10099141). All the cell lines were maintained in a humidified incubator at 37° C. with 5% CO2. Cell culture media and supplements were purchased from Invitrogen, and tissue culture flasks were purchased from Corning, 96-well plates were purchased from Greiner. CellTiter-Glo Luminescent Cell Viability Assay kits were purchased from Promega (Promega-G7573), cells counter Vi-Cell was purchased from Beckman, D300e digital dispenser was purchased from Tecan, detection instrument Envision was purchased from PerkinElmer.
Paclitaxel was purchased from SELLECK, test compounds, such as any one of the compounds disclosed herein, attained solubility in DMSO and when diluted into culture media. DMSO, solutions containing the test compounds, and culture media were warmed to 37° C. or room temperature for the solution preparation and dilutions.
NCI-H460 Cell line were seeded in 96-well plates (1200/well) and allowed to adhere to overnight (100 uL/well), for drug treatments with 2 fold dilution, 9 dose points, triplicates or vehicle control, compound stock solutions were prepared in DMSO and use D300e digital dispenser to add compounds to the wells to give the indicated final drug concentrations. Final DMSO concentration was 0.5%. Cellular ATP concentrations were assessed by using the CellTiter-Glo Cell Viability Assay as per the manufacturer's instructions 72 h after compounds addition. Additional cells lines were assayed with any one of the compounds disclosed herein according to the procedures described for the viability assay with NCI-H460.
A viability assay with HT-29 (Colorectal adenocarcinoma) was performed with compounds listed in Table 18 according to the procedures described in Example 57.

The subject of another assay is MIA PaCa-2. As to the kind of experiment: Viability assay with MIA PaCa-2. As to conditions: MIA PaCa-2, viability assay per Example 57. In outline: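 MIA PaCa-2 cells were seeded at 1200/well, allowed to adhere overnight, then treated in triplicate with 9-point 2-fold compound dilutions at 0.5% final DMSO. Viability was measured as cellular ATP by CellTiter-Glo luminescence 72 h after compound addition.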

Counter-ions that a name gives are not always drawn.

`Cc1cccnc1CN1CCN(Cc2ccc3c(c2)c(-c2ccc(OC(F)(F)F)cc2)cn3CCCN)CC1` [C145; HCl]: the half-maximal effective concentration (EC50) in the assay with NCI-H460, in the assay on HT-29 and in the assay with MIA PaCa-2 was at most 5 µM each time.

Regarding `NCCCn1cc(-c2ccc(OC(F)(F)F)cc2)c2cc(CN3CCN(Cc4ccc(Cl)cc4Cl)CC3)ccc21` [C135; HCl], the EC50 with NCI-H460, in the assay on HT-29 and with MIA PaCa-2 was at most 5 µM in each case.

Regarding `COc1cc(CN2CCN(Cc3ccc4c(c3)c(-c3ccc(OC(F)(F)F)cc3CN)cn4C3CCNCC3)CC2)cc(OC)c1` [C275; HCl], the EC50 with NCI-H460, in the assay on HT-29 and in the assay with MIA PaCa-2 was at most 5 µM each time.

Turning to `NCCCn1cc(-c2ccc(OC(F)(F)F)cc2)c2cc(CN3CCN(Cc4ccc(C(F)(F)F)cc4)CC3)ccc21` [C136; HCl], the half-maximal effective concentration (EC50) in the assay on NCI-H460, with HT-29 and with MIA PaCa-2 was at most 5 µM in each case.

`CC(=O)NCc1cc(OC(F)(F)F)ccc1-c1cn(CCCN)c2ccc(CN3CCN(Cc4ccccc4Cl)CC3)cc12` [C271; HCl]: the EC50 in the assay on NCI-H460, in the assay on HT-29 and in the assay on MIA PaCa-2 was at most 5 µM each time.

On to `Cc1ncc(CN2CCN(Cc3ccc4c(c3)c(-c3ccc(OC(F)(F)F)cc3)cn4CCCN)CC2)[nH]1` [C195; HCl], for which the EC50 in the assay on NCI-H460, in the assay on HT-29 and in the assay with MIA PaCa-2 was 5 to 10 µM in each case.

Turning to `CC(C)(N)CCCn1cc(-c2ccc(OC(F)(F)F)cc2)c2cc(CN3CCN(Cc4ccccc4Cl)CC3)ccc21` [C132; Formic acid], the EC50 in the assay with NCI-H460, with HT-29 and with MIA PaCa-2 was at most 5 µM in each case.

Take `NCCCn1cc(-c2ccc(OC(F)(F)F)cc2)c2cc(CN3CCC(Oc4cccc(Cl)c4)CC3)ccc21` [C236; HCl]: the EC50 with NCI-H460, in the assay with HT-29 and with MIA PaCa-2 was at most 5 µM throughout.

In the case of `FC(F)(F)Oc1ccc(-c2cn(CCNc3ccccn3)c3ccc(CN4CCN(Cc5ccccc5Cl)CC4)cc23)cc1` [C199; HCl], the EC50 in the assay with NCI-H460, with HT-29 and in the assay on MIA PaCa-2 was 5 to 10 µM in each case.

For `COc1ccc(-c2cn(CCCCN)c3ccc(CN4CC5CCC(C4)N5Cc4ccccc4Cl)cc23)cc1` [C133; HCl], the EC50 in the assay with NCI-H460, with HT-29 and in the assay on MIA PaCa-2 was at most 5 µM in each case.

`NC1(C(=O)NCCCn2nc(-c3ccc(OC(F)(F)F)cc3)c3cc(CN4CCN(Cc5ccccc5Cl)CC4)ccc32)CCNCC1` [C201; HCl]: the EC50 in the assay on NCI-H460, in the assay on HT-29 and in the assay on MIA PaCa-2 was at most 5 µM in each case.

`NCC(=O)NCc1ccc(-n2cc(-c3ccc(OC(F)(F)F)cc3)c3cc(CN4CCN(Cc5ccccc5Cl)CC4)ccc32)cn1` [C219; HCl]: the EC50 in the assay on NCI-H460, in the assay with HT-29 and in the assay on MIA PaCa-2 was at most 5 µM in each case.

On to `NCCCn1cc(-c2ccc(OC(F)(F)F)cc2CN)c2cc(S(=O)(=O)N3CCN(Cc4ccccc4Cl)CC3)ccc21` [C245; Formic Acid], for which the EC50 with NCI-H460, with HT-29 and in the assay on MIA PaCa-2 was at most 5 µM in each case.

Consider `COc1ccc(-c2cn(CCCN)c3ccc(CN4CCN(Cc5ccccc5Cl)CC4)cc23)c(CN(C)C)c1` [C284; HCl], for which the EC50 in the assay on NCI-H460, in the assay on HT-29 and with MIA PaCa-2 was at most 5 µM throughout.

For the molecule `COc1cccc(CC2CN(Cc3ccc4c(c3)c(-c3ccc(OC(F)(F)F)cc3CN)cn4CCCN)C2)c1` [C279; Formic Acid], the EC50 with NCI-H460, with HT-29 and in the assay with MIA PaCa-2 was at most 5 µM each time.

For `COc1ccccc1CN1CCN(Cc2ccc3c(c2)c2ccccc2n3CCCN)CC1` [C268; HCl], the EC50 in the assay with NCI-H460 was 5 to 10 µM; in the assay with HT-29, at most 5 µM; in the assay on MIA PaCa-2, 5 to 10 µM.

Consider `NCc1cccc(-n2cc(-c3ccc(OC(F)(F)F)cc3)c3cc(CN4CCN(Cc5ccccc5Cl)CC4)ccc32)c1` [C150; Formic acid], for which the EC50 in the assay on NCI-H460, with HT-29 and in the assay with MIA PaCa-2 was at most 5 µM in each case.

In the case of `CCC1CCN(S(=O)(=O)c2ccc3c(c2)c(-c2ccc(OC)cc2CN)cn3CCCN)CC1` [C270; HCl], the EC50 in the assay on NCI-H460, with HT-29 and in the assay on MIA PaCa-2 was at most 5 µM each time.

On to `NCCCn1cc(-c2ccc(OC(F)(F)F)cc2)c2c(CN3CCN(CCOc4ccc(Cl)cc4)CC3)cccc21` [C144; HCl], for which the EC50 in the assay with NCI-H460, in the assay on HT-29 and in the assay with MIA PaCa-2 was at most 5 µM throughout.

With `NCCCn1cc(-c2ccc(OC(F)(F)F)cc2)c2cc(CN3CCN(Cc4ccn[nH]4)CC3)ccc21` [C187; HCl], the EC50 in the assay on NCI-H460, in the assay with HT-29 and in the assay on MIA PaCa-2 was at most 5 µM in each case.

On to `Cc1ccc(CN2CCN(Cc3ccc4c(c3)c(-c3ccc(OC(F)(F)F)cc3)cn4CCCN)CC2)cc1` [C146; HCl], for which the EC50 in the assay with NCI-H460, with HT-29 and with MIA PaCa-2 was at most 5 µM each time.

Take `NCCCn1cc(-c2ccc(OC(F)(F)F)cc2CN)c2cc(CN3CCC4(CCN(Cc5ccccc5Cl)CC4)C3)ccc21` [C250; HCl]: the EC50 in the assay on NCI-H460, with HT-29 and in the assay on MIA PaCa-2 was at most 5 µM in each case.

As to `CC1(C)CCN(Cc2ccc3c(c2)c(-c2ccc(OC(F)(F)F)cc2CN)cn3CCCN)CC1` [C272; HCl], the EC50 was at most 5 µM in the assay on NCI-H460, at most 5 µM with HT-29 and 5 to 10 µM with MIA PaCa-2.

For the molecule `CC(C)(N)CCCn1cc(-c2ccc(OC(F)(F)F)cc2CN)c2cc(CN3CCN(Cc4ccccc4Cl)CC3)ccc21` [C251; HCl], the EC50 in the assay with NCI-H460, in the assay on HT-29 and in the assay on MIA PaCa-2 was at most 5 µM throughout.

As for `NCCCn1cc(-c2ccc(OC(F)(F)F)cc2)c2cc(CN3CCC(NCC(F)(F)F)CC3)ccc21` [C233; HCl], the concentration for a half-maximal effect (EC50) in the assay with NCI-H460 is at most 5 µM; with HT-29, 5 to 10 µM; in the assay with MIA PaCa-2, 5 to 10 µM.

On to `NCCCn1cc(-c2c(F)cccc2C(N)=O)c2cc(CN3CCN(Cc4ccccc4Cl)CC3)ccc21` [C289; HCl], for which the EC50 with NCI-H460, in the assay with HT-29 and with MIA PaCa-2 was 5 to 10 µM in each case.

As to `NCCCn1cc(-c2ccc(OC(F)(F)F)cc2)c2cc(S(=O)(=O)N3CCN(Cc4ccccc4Cl)CC3)ccc21` [C153; Formic Acid], the EC50 in the assay on NCI-H460, in the assay on HT-29 and with MIA PaCa-2 was at most 5 µM throughout.

Consider `COc1cccc(OC2CCN(Cc3ccc4c(c3)c(-c3ccc(OC(F)(F)F)cc3CN)cn4CCCN)CC2)c1` [C280; HCl], for which the EC50 in the assay on NCI-H460, in the assay with HT-29 and with MIA PaCa-2 was at most 5 µM each time.

For the molecule `NC1CCC(n2cc(-c3ccc(OC(F)(F)F)cc3)c3cc(CN4CCN(Cc5ccccc5Cl)CC4)ccc32)C1` (stereo not drawn) [C134; HCl], the EC50 in the assay with NCI-H460, with HT-29 and in the assay on MIA PaCa-2 was at most 5 µM in each case.

For the molecule `NCc1ccc(Cn2cc(-c3ccc(OC(F)(F)F)cc3)c3cc(CN4CCN(Cc5ccccc5Cl)CC4)ccc32)cn1` [C224; Formic Acid], the EC50 with NCI-H460, in the assay on HT-29 and in the assay on MIA PaCa-2 was at most 5 µM throughout.

As to `FC(F)(F)Oc1ccc(-c2cn(CCCNc3ccccn3)c3ccc(CN4CCN(Cc5ccccc5Cl)CC4)cc23)cc1` [C208; Formic Acid], the EC50 with NCI-H460 is at most 5 µM; with HT-29, 5 to 10 µM; in the assay on MIA PaCa-2, 5 to 10 µM.

As usually defined, the EC50 is the concentration giving half of the maximal effect.

Source of the values: patent publication US20170158702A1, “MULTIVALENT RAS BINDING COMPOUNDS” (KYRAS THERAPEUTICS, INC., priority 2015, published 2017).
